# Results published in patent publication US20260013442A1, “METHOD FOR VEGETATIVE PROPAGATION OF PLANTS” (LETAVIS AB, priority 2020, published 2026).
# Legend:
# [1] = system: cuttings from hibiscuses; experiment: Effect of oxytocin on cuttings of hibiscus; format: in vivo; settings: 90 days
# Excerpt: […] Five cuttings per treatment were used.
# The flasks were covered with aluminum foil and the flasks were kept at room temperature in a window.
# The experiment was allowed to run for 90 days whereafter the development of calluses and roots was documented.
# [2] = system: cut flowers of roses of the variety Furiosa; experiment: Root growth of stalks of cut flowers of the variety Furiosa; format: in vivo, rose
# Procedure: Cut flowers of roses of the variety Furiosa, which had obtained at least 2 side shoots from the stalk, were put in water to allow the side shoots to continue to grow. When the side shoots had reached a length of about 5 cm, the stalk was cut by some mm under the lowest side shoot, which was also removed from the stalk. The stalks were then put into 100 ml Erlenmeyer flasks with either water alone or an oxytocin solution. The solution contained either 1, 4 or 8 μM oxytocin. The liquid in the Erlenmeyer flasks was darkened by coating the flasks with aluminium foil. The flasks were placed in daylight.
# [3] = system: potato tubers of the summer variety Perlo; experiment: Potato tubers treated with oxytocin before pre-sprouting in sunlight; format: in vivo; settings: nineteen days of pre-sprouting
# Procedure: Potato tubers of the summer variety Perlo were pre-sprouting in sunlight after treatment with either tap water, 1 μM oxytocin or 10 μm oxytocin for 6 or 24 hours. For each treatment, 8 tubers were treated by placing them in plastic vessels and covered them with the respective test solution. After treatment, the tubers were pre-sprouted in sunlight at about 20° C. Nineteen days later, the number of sprouts were counted for each tuber and the length per sprout was measured.
# [4] = system: rose cuttings; experiment: Effect of different concentrations of oxytocin on cuttings of roses (58 days); format: in vivo; settings: for Total No. roots: 4 E-flasks with 2 cuttings; for Number of cuttings with roots / Number of living cuttings / Per cutting No. roots / Per cutting Number of side shoots >10 mm / Per cutting mm root / Vitality: n = 8; for Vitality: grading 0-5
# Procedure: On Feb. 11, 2020, cuttings from purchased pots with roses were put into 100 ml Erlenmeyer flasks (E-flasks) with a concentration of oxytocin from 0 to 50 μM (0, 0.5, 1, 5, 10, 20 and 50 μM). The experiment consisted of four E-flasks per concentration with two cuttings in each E-flask. The E-flasks were covered with aluminum foil and placed in a culture room. From day 45, measurements were made every 4-5 days. At day 58, the trial was interrupted.
# [5] = system: cuttings from rose No. 1 (garden rose bush); experiment: Callus/root formation on cuttings from rose No. 1 in oxytocin solution; format: in vivo; settings: for Grading of callus formation: grading 0-8
# Procedure: (§1) Cuttings, about 7 cm long, from the top of a branch of two different roses (rose No. 1 and rose No. 2) and cut directly under a node were put into 100 ml Erlenmeyer flasks with concentrations of oxytocin from 0 to 10 μM (0, 0.5, 1, 2.5, 5 and 10 μM) in tap water. Two cuttings were added to each Erlenmeyer flask. Thereafter, the Erlenmeyer flasks were placed in a growing room under a light intensity of 800 μmol*m^−2*s^−1.
# Cuttings in this experiment were taken from a garden rose bush. […] A grading of the effect of different oxytocin concentrations on the formation of callus from the cuttings can be seen in Table 1. Callus can easily be explained as an accumulation of cells that has not developed into any specific tissue, such as root tissues. Best coverage of callus on the cutting surface of the cuttings was obtained at a concentration of oxytocin of 2.5 μM (FIG. 1).
# [6] = system: cuttings from rose No. 2 (mini rose); experiment: Callus/root formation on cuttings from rose No. 2 in oxytocin solution; format: in vivo; settings: for Grading of callus formation: grading 0-8
# Procedure: as §1
# Cuttings in this experiment was taken from the small rose bushes in pot bought in a flower shop (mini rose), and put into Erlenmeyer flasks. […] Best effect was obtained at 10 μM oxytocin, followed closely by 2.5 μM oxytocin.
# Vigorous development of callus indicates high potential for root formation. To study this effect, the Erlenmeyer flasks with the cuttings from the experiment with rose No. 2 have been covered with aluminium foil.
# [7] = 5 μM oxytocin, 31 days, 2 cuttings
substance,measurement,setting,value
oxytocin,Number of cuttings that had developed calluses,"[1]; 1 μM oxytocin, five cuttings",One
same,Number of cuttings that had developed a root,"[1]; 5 μM oxytocin, five cuttings",one
same,Number of cuttings that had developed calluses,"[1]; 5 μM oxytocin, five cuttings",One
same,root length,"[1]; 5 μM oxytocin, one cutting",~2 mm
same,Number of cuttings that had developed calluses,"[1]; 10 μM oxytocin, five cuttings",two
same,root quality of stalk,"[2]; 1 μM oxytocin, one month after the 2.5 months",showed the best root
same,survival of stalks,"[2]; 4 μM oxytocin, one month after the 2.5 months, secondary fungal growth",had died due to a secondary fungal growth
same,root formation on stalks,"[2]; 1, 4 or 8 μM oxytocin, after about 2.5 months, untreated had died",obtained roots
same,root growth on stalks,"[2]; 1 and 8 μM oxytocin, one month after the 2.5 months",roots had grown much longer
same,percentage increase of long sprouts (over 5 mm) compared to tap water for 6 hours,[3]; 1 μM oxytocin for 6 hours,124%
same,percentage increase in number of shoots compared to tap water for 6 hours,[3]; 1 μM oxytocin for 24 hours,34.6%
same,percentage increase of long sprouts (over 5 mm) compared to tap water for 6 hours,[3]; 1 μM oxytocin for 24 hours,112.5%
same,percentage increase of long sprouts (over 5 mm) compared to tap water for 6 hours,[3]; 10 μM oxytocin for 6 hours,100%
same,percentage increase in number of shoots compared to tap water for 6 hours,[3]; 10 μM oxytocin for 24 hours,37.5%
same,Root length Mean length,"[4]; 0.5 μM oxytocin, 58 days",13.3 mm
same,Total No. roots,"[4]; 0.5 μM oxytocin, 58 days",26
same,Number of cuttings with roots,"[4]; 0.5 μM oxytocin, 58 days",5
same,Number of living cuttings,"[4]; 0.5 μM oxytocin, 58 days",7
same,Per cutting No. roots,"[4]; 0.5 μM oxytocin, 58 days",3.3
same,Per cutting Number of side shoots >10 mm,"[4]; 0.5 μM oxytocin, 58 days",0.4
same,Per cutting mm root,"[4]; 0.5 μM oxytocin, 58 days",43 mm
same,Vitality,"[4]; 0.5 μM oxytocin, 58 days",2.6
same,Root length Mean length,"[4]; 1 μM oxytocin, 58 days",17.4 mm
same,Total No. roots,"[4]; 1 μM oxytocin, 58 days",55
same,Number of cuttings with roots,"[4]; 1 μM oxytocin, 58 days",6
same,Number of living cuttings,"[4]; 1 μM oxytocin, 58 days",8
same,Per cutting No. roots,"[4]; 1 μM oxytocin, 58 days",6.9
same,Per cutting Number of side shoots >10 mm,"[4]; 1 μM oxytocin, 58 days",1
same,Per cutting mm root,"[4]; 1 μM oxytocin, 58 days",119 mm
same,Vitality,"[4]; 1 μM oxytocin, 58 days",3.5
same,time after which all cuttings had developed roots,[4]; 5 μM oxytocin,50 days
same,Root length Mean length,"[4]; 5 μM oxytocin, 58 days",11.6 mm
same,Total No. roots,"[4]; 5 μM oxytocin, 58 days",51
same,Number of cuttings with roots,"[4]; 5 μM oxytocin, 58 days",7
same,Number of living cuttings,"[4]; 5 μM oxytocin, 58 days",7
same,Per cutting No. roots,"[4]; 5 μM oxytocin, 58 days",6.4
same,Per cutting Number of side shoots >10 mm,"[4]; 5 μM oxytocin, 58 days",0.6
same,Per cutting mm root,"[4]; 5 μM oxytocin, 58 days",76 mm
same,Vitality,"[4]; 5 μM oxytocin, 58 days",2.5
same,cuttings that had developed roots,"[4]; 5 μM oxytocin, day 45",five out of seven
same,"delay until all cuttings had roots, compared with 5 μM oxytocin",[4]; 10 μM and 50 μM oxytocin,4 to 8 days
same,Root length Mean length,"[4]; 10 μM oxytocin, 58 days",11.4 mm
same,Total No. roots,"[4]; 10 μM oxytocin, 58 days",46
same,Number of cuttings with roots,"[4]; 10 μM oxytocin, 58 days",7
same,Number of living cuttings,"[4]; 10 μM oxytocin, 58 days",7
same,Per cutting No. roots,"[4]; 10 μM oxytocin, 58 days",5.8
same,Per cutting Number of side shoots >10 mm,"[4]; 10 μM oxytocin, 58 days",0.5
same,Per cutting mm root,"[4]; 10 μM oxytocin, 58 days",66 mm
same,Vitality,"[4]; 10 μM oxytocin, 58 days",2.9
same,Root length Mean length,"[4]; 20 μM oxytocin, 58 days",12.7 mm
same,Total No. roots,"[4]; 20 μM oxytocin, 58 days",46
same,Number of cuttings with roots,"[4]; 20 μM oxytocin, 58 days",5
same,Number of living cuttings,"[4]; 20 μM oxytocin, 58 days",6
same,Per cutting No. roots,"[4]; 20 μM oxytocin, 58 days",5.8
same,Per cutting Number of side shoots >10 mm,"[4]; 20 μM oxytocin, 58 days",0.5
same,Per cutting mm root,"[4]; 20 μM oxytocin, 58 days",72 mm
same,Vitality,"[4]; 20 μM oxytocin, 58 days",2.3
same,Root length Mean length,"[4]; 50 μM oxytocin, 58 days",10.0 mm
same,Total No. roots,"[4]; 50 μM oxytocin, 58 days",52
same,Number of cuttings with roots,"[4]; 50 μM oxytocin, 58 days",8
same,Number of living cuttings,"[4]; 50 μM oxytocin, 58 days",8
same,Per cutting No. roots,"[4]; 50 μM oxytocin, 58 days",6.5
same,Per cutting Number of side shoots >10 mm,"[4]; 50 μM oxytocin, 58 days",0.4
same,Per cutting mm root,"[4]; 50 μM oxytocin, 58 days",65 mm
same,Vitality,"[4]; 50 μM oxytocin, 58 days",3.5
same,cuttings that had developed callus,"[4]; 50 μM oxytocin, day 45",all cuttings
same,cuttings that had calluses,"[4]; 1, 5 and 10 μM oxytocin, day 45",all but one of the living cuttings
same,concentration giving most roots and longest total length of roots per cutting,[4]; 6 cuttings per concentration (FIG. 7),1 µM
same,concentration most potent for callus and roots at nodes higher up on the stem,"[4]; 58 days, tested 0-50 μM",20 µM
same,"total amount of roots formed, average over concentrations","[4]; concentrations of 1 M and above, 58 days, compared to 30 at 0 μM",50.5 mm
same,Grading of callus formation,"[5]; 0.5 μM oxytocin, 31 days, 2 cuttings",6
same,Grading of callus formation,"[5]; 1 μM oxytocin, 31 days, 2 cuttings",4
same,Grading of callus formation,"[5]; 2.5 μM oxytocin, 31 days, 2 cuttings",7
same,small roots formed,[5]; [7],one
same,Grading of callus formation,[5]; [7],6
same,length of root developed from callus,"[5]; 5 μM oxytocin, one of the two cuttings",2-3 mm
same,Grading of callus formation,"[5]; 10 μM oxytocin, 31 days, 2 cuttings",5
same,leaf aging,[5]; 5-10 μM oxytocin,inhibit leaf aging
same,concentration with best coverage of callus on the cutting surface,"[5]; 31 days, tested 0-10 μM",2.5 µM
same,Grading of callus formation,"[6]; 0.5 μM oxytocin, 24 days, 2 cuttings",2
same,root formation,"[6]; 0.5 μM oxytocin, nineteen days after day 24, flasks covered with aluminium foil",roots had been formed in all treatments except in 0.5 μM oxytocin
same,Grading of callus formation,"[6]; 1 μM oxytocin, 24 days, 2 cuttings",3
same,Grading of callus formation,"[6]; 2.5 μM oxytocin, 24 days, 2 cuttings",6
same,Grading of callus formation,"[6]; 5 μM oxytocin, 24 days, 2 cuttings",1
same,cuttings showing root development,"[6]; 5 μM oxytocin, nineteen days after day 24, 2 cuttings",one of the two cuttings
same,Grading of callus formation,"[6]; 10 μM oxytocin, 24 days, 2 cuttings",7
same,development of roots from cuttings,[6]; 1-10 μM oxytocin,stimulated the development of roots
same,root development,"[6]; 2.5 and 10 μM oxytocin, nineteen days after day 24",Root development was best
same,leaf aging,[6]; 5-10 μM oxytocin,inhibit leaf aging
same,concentration with best effect on development of callus,"[6]; 24 days, tested 0-10 μM",10 µM
